In patent US20240360177A1, “PEPTIDES WITH ANTIMICROBIAL ACTIVITIES” (priority 2021, published 2024):
Converted amounts (≈) assume the structure as drawn. Where two headings read alike, the source gives them in different places. Non-standard residues stand in square brackets, D forms with d. Residues, ends and D or L forms follow the SMILES beside them. Aoc = NCCCCCCCC(=O)O; βAla = NCCC(=O)O

Tests used:
C. dubliniensis = conditions: 24 h
C. glabrata = conditions: 24 h
C. albicans = conditions: 24 h
Coccidioides species = conditions: N = 3 strains; 48-72 hrs; >50% inhibition
in vitro [1] = conditions: human
C. auris = conditions: 24 h
C. tropicalis = conditions: 24 h
C. parapsilosis = conditions: 24 h
C. neoformans = conditions: 72 h
C. krusei = conditions: 24 h
C. gattii = conditions: 72 h
in vitro [2] = conditions: human, human serum, full strength
[3] = system: Staphylococcus aureus ATCC 29213; type: cell-based
[4] = system: Pseudomonas aeruginosa ATCC 27853; type: cell-based
[5] = system: Escherichia coli ATCC 25922; type: cell-based
[6] = Acute toxicity in CD-1 mice; conditions: both sexes, mouse, in vivo
Description: Acute toxicity and subacute toxicity of ACPs were tested in CD-1 mice. In the acute toxicity study, groups of CD-1 male or female mice were administered single intravenous or intraperitoneal escalating doses (n=2-3 per dose) of the peptides dissolved in normal saline for injection or in phosphate buffered saline. The intravenous dose was administered via tail vein with a slow push over 15-20 seconds. Doses were escalated based on tolerability.

[7] = EC50 cytotoxicity in HepG2, intracellular ATP assay

SMILES	MIC C. dubliniensis (C. dubliniensis) [µg/mL]	MIC Range Scedosporium spp. (Scedosporium spp.; 72 h) [µg/mL]	MIC C. glabrata (C. glabrata) [µg/mL]	MIC C. albicans (C. albicans) [µg/mL]	MIC Range Rhizopus arrhizus (Rhizopus arrhizus; 24 h) [µg/mL]	MIC Range Coccidioides species (Coccidioides species) [µg/mL]	EC50 (in vitro [1]; [7]) [µg/mL]	MIC C. auris (C. auris) [µg/mL]	MIC C. tropicalis (C. tropicalis) [µg/mL]	MIC Range Paecilomyces variotii (Paecilomyces variotii; 48 h) [µg/mL]	MIC C. parapsilosis (C. parapsilosis) [µg/mL]	MIC C. neoformans (C. neoformans) [µg/mL]	MIC Range Fusarium spp. (Fusarium spp.; 48 h) [µg/mL]	MIC C. krusei (C. krusei) [µg/mL]	MIC C. gattii (C. gattii) [µg/mL]	MIC Range Lomentospora prolificans (Lomentospora prolificans) [µg/mL]	other results
CC[C@@H]([C@H](C)O)n1ncn(-c2ccc(N3CCN(c4ccc(OC[C@@H]5CO[C@@](Cn6cncn6)(c6ccc(F)cc6F)C5)cc4)CC3)cc2)c1=O [POS, posaconazole, reference compound]	–	–	–	–	–	–	–	–	–	–	–	–	–	–	–	–	MIC Range Rhizopus arrhizus (Rhizopus arrhizus; N = 3 strains, 24 hrs): 0.12 to 0.25 µg/mL; MIC Range Paecilomyces variotii (Paecilomyces variotii; N = 1 strain, 48 hrs): ≤0.03 µg/mL
N=C(N)NCCC[C@@H](N)C(=O)N[C@@H](CCCNC(=N)N)C(=O)N[C@H](CCCNC(=N)N)C(=O)NCC(=O)N[C@H](CCCNC(=N)N)C(=O)N[C@@H](CCCNC(=N)N)C(=O)N[C@H](CCCNC(=N)N)C(=O)NCC(=O)N[C@H](CCCNC(=N)N)C(=O)N[C@@H](CCCNC(=N)N)C(=O)N[C@H](CCCNC(=N)N)C(=O)N[C@@H](CCCNC(=N)N)C(=O)NCC(=O)N[C@H](CCCNC(=N)N)C(=O)N[C@@H](CCCNC(=N)N)C(=O)N[C@H](CCCNC(=N)N)C(=O)N[C@@H](CCCNC(=N)N)C(=O)O [SEQ ID NO: 3, rRr-G-rRr-G-rRrR-G-rRrR] (H-[dR]R[dR]G[dR]R[dR]G[dR]R[dR]RG[dR]R[dR]R-OH)	0.25 (≈ 0.105 µM)	≤0.12	0.25 (≈ 0.105 µM)	0.5 (≈ 0.21 µM)	1 to 8	0.25 to 0.5	> 300	4 (≈ 1.68 µM)	0.25 (≈ 0.105 µM)	0.25 (≈ 0.105 µM)	0.25 (≈ 0.105 µM)	0.5 (≈ 0.21 µM)	0.12 to 0.5	1 (≈ 0.421 µM)	0.5 (≈ 0.21 µM)	≤0.12	EC50 (in vitro [1]; EC50 cytotoxicity in HepG2 cells (50% cell viability)): > 300 µg/mL; MIC50 against Candida spp. (Candida spp.): 0.5 µg/mL (≈ 0.21 µM); MIC90 against Candida spp. (Candida spp.): 4 µg/mL (≈ 1.68 µM)
N=C(N)NCCC[C@@H](N)C(=O)N[C@@H](CCCNC(=N)N)C(=O)N[C@H](CCCNC(=N)N)C(=O)NCC(=O)N[C@H](CCCNC(=N)N)C(=O)N[C@@H](CCCNC(=N)N)C(=O)N[C@H](CCCNC(=N)N)C(=O)NCC(=O)N[C@H](CCCNC(=N)N)C(=O)N[C@@H](CCCNC(=N)N)C(=O)N[C@H](CCCNC(=N)N)C(=O)N[C@@H](CCCNC(=N)N)C(=O)NCC(=O)N[C@H](CCCNC(=N)N)C(=O)N[C@@H](CCCNC(=N)N)C(=O)N[C@H](CCCNC(=N)N)C(=O)N[C@@H](CCCNC(=N)N)C(N)=O [SEQ ID NO: 4, rRr-G-rRr-G-rRrR-G-rRrR-NH2] (H-[dR]R[dR]G[dR]R[dR]G[dR]R[dR]RG[dR]R[dR]R-NH2)	0.25 (≈ 0.105 µM)	≤0.12	0.25 (≈ 0.105 µM)	0.5 (≈ 0.211 µM)	0.5 to 8	0.25 to 0.5	> 300	8 (≈ 3.37 µM)	0.25 (≈ 0.105 µM)	0.25 (≈ 0.105 µM)	0.25 (≈ 0.105 µM)	0.25 (≈ 0.105 µM)	0.06 to 8	0.5 (≈ 0.211 µM)	0.5 (≈ 0.211 µM)	≤0.12	–
N=C(N)NCCC[C@H](NC(=O)[C@H](CCCNC(=N)N)NC(=O)[C@H](CCCNC(=N)N)NC(=O)[C@H](CCCNC(=N)N)NC(=O)CCNC(=O)[C@H](CCCNC(=N)N)NC(=O)[C@H](CCCNC(=N)N)NC(=O)[C@H](CCCNC(=N)N)NC(=O)[C@H](CCCNC(=N)N)NC(=O)CCNC(=O)[C@H](CCCNC(=N)N)NC(=O)[C@H](CCCNC(=N)N)NC(=O)[C@H](CCCNC(=N)N)NC(=O)CCNC(=O)[C@H](CCCNC(=N)N)NC(=O)[C@H](CCCNC(=N)N)NC(=O)[C@@H](N)CCCNC(=N)N)C(N)=O [SEQ ID NO: 13, RRR-(Apr)-RRR-(Apr)-RRRR-(Apr)-RRRR-NH2] (H-RRR[βAla]RRR[βAla]RRRR[βAla]RRRR-NH2)	2 (≈ 0.828 µM)	0.25 (≈ 0.103 µM)	32 (≈ 13.2 µM)	8 (≈ 3.31 µM)	–	–	> 300	4 (≈ 1.66 µM)	0.5 (≈ 0.207 µM)	–	0.25 (≈ 0.103 µM)	1 (≈ 0.414 µM)	0.5 to 2	2 (≈ 0.828 µM)	0.5 (≈ 0.207 µM)	–	remaining at 2 h, 5 μM (in vitro [2]): ~40%; MIC50 Candida species (Candida spp.): 4 µg/mL (≈ 1.66 µM); MIC90 Candida species (Candida spp.): 16 µg/mL (≈ 6.62 µM)
N=C(N)NCCC[C@H](NC(=O)CCNC(=O)[C@H](CCCNC(=N)N)NC(=O)[C@@H](CCCNC(=N)N)NC(=O)[C@@H](N)CCCNC(=N)N)C(=O)N[C@H](CCCNC(=N)N)C(=O)N[C@@H](CCCNC(=N)N)C(=O)NCCC(=O)N[C@@H](CCCNC(=N)N)C(=O)N[C@H](CCCNC(=N)N)C(=O)N[C@@H](CCCNC(=N)N)C(=O)N[C@H](CCCNC(=N)N)C(=O)NCCC(=O)N[C@@H](CCCNC(=N)N)C(=O)N[C@H](CCCNC(=N)N)C(=O)N[C@@H](CCCNC(=N)N)C(=O)N[C@H](CCCNC(=N)N)C(N)=O [SEQ ID NO: 15, RrR-(Apr)-RrR-(Apr)-RrRr-(Apr)-RrRr-NH2] (H-R[dR]R[βAla]R[dR]R[βAla]R[dR]R[dR][βAla]R[dR]R[dR]-NH2)	0.5 (≈ 0.207 µM)	0.25 to 0.5	0.5 (≈ 0.207 µM)	1 (≈ 0.414 µM)	–	–	> 300	0.5 (≈ 0.207 µM)	0.25 (≈ 0.103 µM)	–	0.25 (≈ 0.103 µM)	0.5 (≈ 0.207 µM)	0.12 to 0.25	0.5 (≈ 0.207 µM)	0.25 (≈ 0.103 µM)	–	remaining at 2 h, 5 μM (in vitro [2]): ~100%; MIC50 Candida species (Candida spp.): 0.5 µg/mL (≈ 0.207 µM); MIC90 Candida species (Candida spp.): 1 µg/mL (≈ 0.414 µM); MIC Staphylococcus aureus [3]: 16 µg/mL (≈ 6.62 µM); MIC Pseudomonas aeruginosa [4]: 64 µg/mL (≈ 26.5 µM); MIC Escherichia coli [5]: 32 µg/mL (≈ 13.2 µM)
N=C(N)NCCC[C@@H](N)C(=O)N[C@@H](CCCNC(=N)N)C(=O)N[C@H](CCCNC(=N)N)C(=O)NCCC(=O)N[C@H](CCCNC(=N)N)C(=O)N[C@@H](CCCNC(=N)N)C(=O)N[C@H](CCCNC(=N)N)C(=O)NCCC(=O)N[C@H](CCCNC(=N)N)C(=O)N[C@@H](CCCNC(=N)N)C(=O)N[C@H](CCCNC(=N)N)C(=O)N[C@@H](CCCNC(=N)N)C(=O)NCCC(=O)N[C@H](CCCNC(=N)N)C(=O)N[C@@H](CCCNC(=N)N)C(=O)N[C@H](CCCNC(=N)N)C(=O)N[C@@H](CCCNC(=N)N)C(=O)NCCCCCCCC(=O)O [SEQ ID NO: 16, rRr-(Apr)-rRr-(Apr)-rRrR-(Apr)-rRrR-(Aoa)] (H-[dR]R[dR][βAla][dR]R[dR][βAla][dR]R[dR]R[βAla][dR]R[dR]R[Aoc]-OH)	0.5 (≈ 0.195 µM)	–	0.5 (≈ 0.195 µM)	1 (≈ 0.391 µM)	2 to 64	0.5 (≈ 0.195 µM)	> 300	0.5 (≈ 0.195 µM)	0.5 (≈ 0.195 µM)	0.25 (≈ 0.0977 µM)	0.5 (≈ 0.195 µM)	0.5 (≈ 0.195 µM)	0.25 to 1	0.5 (≈ 0.195 µM)	0.25 (≈ 0.0977 µM)	0.25 (≈ 0.0977 µM)	MTD ([6]; single IP dose, read-out: Tolerated single intraperitoneal dose): 10 to 15 mg/kg; MTD ([6]; single IV dose via tail vein, read-out: Tolerated single intravenous dose): 5 to 7.5 mg/kg
C[C@@H](c1ncncc1F)[C@](O)(Cn1cncn1)c1ccc(F)cc1F [VOR, voriconazole, reference compound]	–	–	–	–	–	–	–	–	–	–	–	–	–	–	–	–	MIC Range Scedosporium spp. (Scedosporium spp.; N = 2 strains, 72 hrs): 1 to 2 µg/mL; MIC Range Paecilomyces variotii (Paecilomyces variotii; N = 1 strain, 48 hrs): 0.12 µg/mL (≈ 0.344 µM); MIC Range Fusarium spp. (Fusarium spp.; N = 3 strains, 48 hrs): 4 to 16 µg/mL; MIC Range Lomentospora prolificans (Lomentospora prolificans; N = 1 strain): 16 µg/mL (≈ 45.8 µM)
